Assay results: EPA's ToxValDB 9.5
Values after ≈ are worked out from the molar mass of the structure shown. Values joined by “and” are separate entries in the source; they are usually repeats but may differ in a detail not shown here. Identical values can stand only once.

Key:
Rattus norvegicus [1] = details: for LC50 / LD50: acute
Rattus norvegicus [2] = test: LD40; higher = less toxic; details: acute; oral; gavage; Wistar
Cavia sp. = details: acute; inhalation; FTD Hartley
Monkey [3] = details: subchronic; duration: 3 months; inhalation; Cynomolgus
Mus musculus [4] = details: for LC50 / LD50: acute; for LD50: injection
Rattus norvegicus [5] = details: repeat dose other; oral
Tytonidae = details: oral
Rattus norvegicus [6] = system: Rattus norvegicus
Monkey [7] = details: subchronic; duration: 55 days; oral; diet; M; Squirrel Monkey; neurological
Rattus norvegicus [8] = system: Rattus norvegicus; remark: listed apart in the source
Rattus norvegicus [9] = details: chronic, duration: 2 years, oral, diet
Cavia porcellus = details: subchronic, inhalation, Guinea Pig
Oryctolagus sp. [10] = details: subchronic; duration: 7 weeks; inhalation
Rattus norvegicus [11] = details: subchronic; duration: 90 days; oral; gavage; M/F; Sprague-Dawley; Whole Body Effects
Mus musculus [12] = test: LC100; higher = less toxic; details: acute; inhalation
Perdix perdix = details: oral
Canidae = details: chronic, duration: 1 years, oral, diet, Dog Other, Decreased weight gain in males and neurologic findings in both sexes
Oryctolagus sp. [13] = details: reproduction developmental; duration: 22 days; oral; gavage; M/F; New Zealand; neurological
Homo sapiens = details: clinical; duration: 30 minutes; inhalation; M/F; respiratory
Mus musculus [14] = details: subchronic; duration: 13 weeks; inhalation; intermittent; Nasal mucosa: Inflammation
Sus scrofa = details: chronic; duration: 105 days; oral; diet; Not specified; Gastrointestinal system: Disturbance
[15] = chronic, duration: 2 years, oral, diet, M/F, liver lesions
[16] = subchronic, duration: 35 days, inhalation, ICR
[17] = subchronic, duration: 90 days, oral, gavage, Albino- not specified
[18] = subchronic, oral, M/F, reduced body weight
[19] = chronic, duration: 2 years, oral, diet, F, increased incidence of marked progressive glomerulonephrosis and blood vessel aneurysms in males + Reduced body weight gain in males and …
[20] = subchronic, inhalation, M, nasal lesions of the olfactory mucosa

SMILES: CC(C)(C)C(=O)CCc1ccc(Cl)cc1 [1-(4-Chlorophenyl)-4,4-dimethyl-pentan-3-one]
- LC50 (Rattus norvegicus [1]; Inhalation, Wistar): > 2940 mg/m3
- LD50 (Rattus norvegicus [1]; dermal, occlusive, Wistar): > 5000 mg/kg
- LD50 (Rattus norvegicus [1]; oral, gavage, Wistar): 4750 mg/kg and > 5000 mg/kg and 4820 mg/kg
- LD40 (Rattus norvegicus [2]): 3140 mg/kg

SMILES: [C-]#[O+] [Carbon monoxide]
- LC50 (Cavia sp.): 2070 mg/m3 and ≥ 1830 mg/m3 and ≤ 2240 mg/m3
- LOAEL (Monkey [3]): 115 mg/m3
- LC50 (Mus musculus [4]; inhalation, NIH/Nmri Swiss albino): 2070 mg/m3 and ≥ 1830 mg/m3 and ≤ 2240 mg/m3
- LOAEL (Mus musculus [4]; reproduction developmental, duration: 7 days, inhalation, CD1, generation: F1): 143 mg/m3

SMILES: ClC1=C(Cl)[C@]2(Cl)[C@@H]3[C@@H]4C[C@@H]([C@H]5O[C@@H]45)[C@@H]3[C@@]1(Cl)C2(Cl)Cl [Dieldrin]
- LOAEL (Rattus norvegicus [5]): 0.2 mg/kg-day
- NOAEL (Rattus norvegicus [5]): 0.02 mg/kg-day
- NOAEL (Tytonidae): 0.077 mg/kg-day
- LOAEL (Rattus norvegicus [6]; [15]): 0.05 mg/kg-day
- NOAEL (Rattus norvegicus [6]; [15]): 0.005 mg/kg-day
- NOAEL (Monkey [7]): 0.01 mg/kg-day
- NOAEL (Rattus norvegicus [8]; chronic, duration: 2 years, oral, diet, M/F, Carworth Farms E, hepatic): 0.005 mg/kg-day
- NOAEL (Rattus norvegicus [9]; Liver: Lesions): 0.005 mg/kg-day

SMILES: CCOCC [Diethyl ether]
- NOAEL (Cavia porcellus; duration: 7 weeks): 6.2 mg/L
- LOAEL (Cavia porcellus; duration: 35 days): 30 mg/L
- NOAEL (Cavia porcellus; duration: 35 days): 3 mg/L
- LC50 (Mus musculus [4]; inhalation): 130 mg/L (≈ 1750 µM)
- LC50 (Mus musculus [4]; inhalation, C3H/HeCr): 98200 mg/m3 and 94900 mg/m3
- LC50 (Mus musculus [4]; inhalation, C57BL/6): 199000 mg/m3 and 182000 mg/m3
- LD50 (Mus musculus [4]; Intraperitoneal): 2420 mg/kg
- LD50 (Mus musculus [4]; intravenous): 996 mg/kg
- LOAEL (Mus musculus [4]; [16]): 30 mg/L
- NOAEL (Mus musculus [4]; [16]): 3 mg/L
- NOAEL (Oryctolagus sp. [10]): 6.2 mg/L
- LC50 (Rattus norvegicus [1]; oral, Sprague-Dawley): 1710 mg/kg
- NOAEL (Rattus norvegicus [1]; subchronic, duration: 7 weeks, inhalation, Wistar): 6.2 mg/L
- NOAEL (Rattus norvegicus [1]; subchronic, duration: 35 days, inhalation, Sprague-Dawley): 30 mg/L
- LOAEL (Rattus norvegicus [1]; [17]): 2000 mg/kg-day
- NOAEL (Rattus norvegicus [1]; [17]): 500 mg/kg-day
- LOAEL (Rattus norvegicus [6]; [18]): 2000 mg/kg-day
- NOAEL (Rattus norvegicus [6]; [18]): 500 mg/kg-day
- NOAEL (Rattus norvegicus [11]): 500 mg/kg-day
- LC100 (Mus musculus [12]): 128 mg/L

SMILES: O=S1OCC2C(CO1)C1(Cl)C(Cl)=C(Cl)C2(Cl)C1(Cl)Cl (stereo not drawn) [Endosulfan]
- NOAEL (Perdix perdix): 10 mg/kg-day
- NOAEL (Rattus norvegicus [5]): 0.15 mg/kg-day
- LOAEL (Canidae; F): 1.9 mg/kg-day
- NOAEL (Canidae; F): 0.57 mg/kg-day
- LOAEL (Canidae; M): 2.1 mg/kg-day
- LOAEL (Rattus norvegicus [6]; [19]): 3.8 mg/kg-day
- NOAEL (Rattus norvegicus [6]; [19]): 0.7 mg/kg-day
- LOAEL (Rattus norvegicus [6]; chronic, duration: 2 years, oral, diet, M, increased incidence of marked progressive glomerulonephrosis and blood vessel aneurysms in males + Reduced body weight gain in males and …): 2.9 mg/kg-day
- NOAEL (Rattus norvegicus [6]; chronic, duration: 2 years, oral, diet, M, reduced body weight gain (males) and females increased incidence of marked progressive glomerulonephrosis and blood vessel aneurysms (males)): 0.6 mg/kg-day
- NOAEL (Oryctolagus sp. [13]): 0.7 mg/kg-day
- NOAEL (Rattus norvegicus [8]; chronic, duration: 22 weeks, oral, diet, M, Wistar, immunological): 0.45 mg/kg-day
- NOAEL (Rattus norvegicus [9]; Blood vessel: Aneurysms + Kidney: Glomerulonephrosis + Whole body: Decreased weight gain): 1.17 mg/kg-day

SMILES: S [Hydrogen sulfide]
- LC50 (Rattus norvegicus [1]; inhalation, Sprague-Dawley): 619 mg/m3 and ≥ 580 mg/m3 and ≤ 659 mg/m3
- NOAEL (Rattus norvegicus [1]; reproduction developmental, duration: 18 days, inhalation, F, Sprague-Dawley): 112 mg/m3
- NOAEL (Rattus norvegicus [1]; reproduction developmental, inhalation, Sprague-Dawley, generation: F0): 112 mg/m3
- NOAEL (Rattus norvegicus [1]; reproduction developmental, inhalation, Sprague-Dawley, generation: F1): 112 mg/m3
- LOAEL (Rattus norvegicus [6]; [20]): 41.7 mg/m3
- NOAEL (Rattus norvegicus [6]; [20]): 13.9 mg/m3
- LOAEL (Homo sapiens): 2.79 mg/m3
- NOAEL (Rattus norvegicus [8]; subchronic, duration: 10 weeks, inhalation, M, Sprague-Dawley, respiratory): 13.9 mg/m3
- NOAEL (Mus musculus [14]): 42 mg/m3
- NOAEL (Sus scrofa): 3.1 mg/kg-day
